Measured values: patent US20260138959A1, “QUINAZOLINE DERIVATIVE COMPOUND AND USE THEREOF” (VORONOI INC., priority 2021, published 2026)

What was measured:
Ba/F3-c-KIT(D816V) = test: Proliferation inhibitory activity on Ba/F3 cell (CellTiter-Glo, 72 hours), c-KIT(D816V); type: cell-based; settings: Mus musculus, BaF3, read-out: Ba/F3 (nM) c-KIT (D816V) (GI50 class)
Summary of the method: (§1)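 Viability was read by CellTiter-Glo after 72 h compound exposure at 37 °C, and GI50 values (nM) were derived from percent of vehicle-treated growth. Ba/F3 cells transformed with TEL-PDGFRα/β or mutant c-KIT were plated at 3×10^3 per well. Final compound range was 0.00005-10 μM in 12 threefold steps.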

human PDGFR-α(wt) = target: T1, human PDGFR-α(wt) (Homo sapiens, UniProt P16234); test: Enzyme inhibitory activity, ADP-Glo kinase assay, PDGFR-α(wt); type: biochemical; settings: read-out: PDGFR-α (IC50 class)
T1 construct: purchased Signalchem P12-18G
T1 sequence (P16234 24-1089): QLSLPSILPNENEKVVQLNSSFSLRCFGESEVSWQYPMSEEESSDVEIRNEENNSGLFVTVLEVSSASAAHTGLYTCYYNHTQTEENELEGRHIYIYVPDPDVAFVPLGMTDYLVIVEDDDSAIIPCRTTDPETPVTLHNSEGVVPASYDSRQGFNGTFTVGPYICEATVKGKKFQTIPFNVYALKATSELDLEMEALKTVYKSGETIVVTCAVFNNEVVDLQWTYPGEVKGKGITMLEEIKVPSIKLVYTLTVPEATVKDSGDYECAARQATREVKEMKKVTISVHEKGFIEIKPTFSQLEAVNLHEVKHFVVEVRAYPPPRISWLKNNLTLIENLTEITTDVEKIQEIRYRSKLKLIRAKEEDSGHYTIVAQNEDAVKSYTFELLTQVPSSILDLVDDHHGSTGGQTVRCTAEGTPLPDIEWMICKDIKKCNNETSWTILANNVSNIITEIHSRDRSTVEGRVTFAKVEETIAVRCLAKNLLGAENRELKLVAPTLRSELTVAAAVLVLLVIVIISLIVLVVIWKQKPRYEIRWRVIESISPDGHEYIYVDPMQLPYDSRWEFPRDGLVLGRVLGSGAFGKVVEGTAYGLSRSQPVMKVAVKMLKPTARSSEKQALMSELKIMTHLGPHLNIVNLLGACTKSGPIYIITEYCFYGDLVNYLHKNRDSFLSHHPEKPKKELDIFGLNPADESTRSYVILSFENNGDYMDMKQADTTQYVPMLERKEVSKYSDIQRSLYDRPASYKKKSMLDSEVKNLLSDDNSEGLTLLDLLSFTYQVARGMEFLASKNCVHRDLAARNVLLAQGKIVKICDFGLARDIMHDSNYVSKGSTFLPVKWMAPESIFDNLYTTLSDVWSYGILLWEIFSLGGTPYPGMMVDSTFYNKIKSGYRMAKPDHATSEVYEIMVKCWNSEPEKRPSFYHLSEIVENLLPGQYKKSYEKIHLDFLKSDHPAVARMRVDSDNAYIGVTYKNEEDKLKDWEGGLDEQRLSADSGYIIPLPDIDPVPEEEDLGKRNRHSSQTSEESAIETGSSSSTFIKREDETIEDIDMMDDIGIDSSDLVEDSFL
Protocol: In order to evaluate the inhibitory activity of the compounds synthesized according to the above examples on PDGFR-α(wt), PDGFR-β(wt), c-KIT(wt), and c-KIT(D816V) kinases, the following method was performed. The compounds of examples were reacted with purified human PDGFR-α(wt) (Signalchem #P12-18G) enzyme, human PDGFR-β(wt) (Signalchem #P13-11G) enzyme, human c-KIT(wt) (Signalchem #K06-11BG) enzyme, human c-KIT(D816V) (Signalchem #C06-12LG) enzyme, and the enzyme inhibitory abilities were evaluated by the following method.
The reaction buffer was used as a composition of 40 mM Tris-HCl pH7.4, 20 mM MgCl2, 0.5 mg/ml BSA, 50 μM DTT, and the reactions of all the tests were carried out on the reaction buffer. The compound was diluted in 12 steps using a serial dilution method from a 10 mM DMSO stock, and the enzyme activity was measured at a final compound concentration of 10˜0.00005645 μM. During the test, the enzyme activity was confirmed using in vitro ADP-Glo™ kinase assay (Promega) after reacting with the proper concentration of human PDGFR-α(wt) enzyme, human PDGFR-β(wt), human c-KIT(wt) enzyme, and human c-KIT(D816V) enzyme with purified ATP and enzyme substrate at 25° C. for 1˜2 hours. At a ratio of 2:2:1, an enzyme-active reaction solution, an ADP-Glo reaction solution, and an enzyme-active detection solution were reacted to measure the inhibition of the enzyme's activity with luminoscence. Based on the […] of the enzyme activity of the solvent control that was not treated with the compound, the degree of enzyme activity inhibition was calculated according to the treatment concentration of each compound, and the concentration of each compound that inhibits 50% of enzyme activity was determined as IC50 (nM) value and the value was obtained by using GraphPad Prism 8.3.0 (GraphPad software Inc., San Diego) software. (A: IC50≤50 nM; B: 50 nM<IC50≤100 nM; C: 100 nM<IC50≤500 nM; D: IC50>500 nM).

c-KIT V560G/D816V = test: Proliferation inhibitory activity on Ba/F3 cell (CellTiter-Glo, 72 hours), c-KIT V560G/D816V; type: cell-based; settings: Mus musculus, BaF3, c-KIT V560G/D816V cells, read-out: Cell (nM) c-KIT V560G/D816V (GI50 class)
Summary of the method: as §1

Ba/F3-TEL-PDGFβ(WT) = test: Proliferation inhibitory activity on Ba/F3 cell (CellTiter-Glo, 72 hours), PDGFR-β; type: cell-based; settings: Mus musculus, BaF3, read-out: Ba/F3 (nM) Tel-PDGFRβ (GI50 class)
Protocol: (§2) Ba/F3-TEL-PDGFRα(WT), Ba/F3-TEL-PDGFβ(WT), Ba/F3-c-KIT(D816V) (Kyinno, #KC-0138), c-KIT V560G/D816V, c-KIT D814Y were seeded at 3×10^3/100 μl/well in a clear bottom white 96-well plate. A culture solution containing compounds of 12 concentrations (0.00001-2 mM) serially diluted in 3 folds and the DMSO control group was added at 0.5 μl/well each to a final concentration of 0.00005-10 μM, and then incubated in a CO2 incubator at 37° C. for 72 hours. After 72 hours, the plate treated with the compound was taken out, CellTiter-Glo® Assay (Promega) solution was treated with 100 μl/well, followed by mixing well. After mixing well for about 10 minutes at room temperature, […] was measured using a microplate reader. The data were presented as percentages in proportion to treated cells based on the vehicle, GI50 (nM) values were calculated using GraphPad Prism 8.3.0 (GraphPad software Inc., San Diego).
(§3) The inhibitory activities of Ba/F3 expressing PDGFR-α, PDGFR-β, c-KIT(D816V), c-KIT V560G/D816V, and c-KIT D814Y measured as described above were measured and shown in Table 7 below (A: GI50≤200 nM; B: 200 nM<GI50≤500 nM; C: GI50>500 nM).

Ba/F3-TEL-PDGFRα(WT) = test: Proliferation inhibitory activity on Ba/F3 cell (CellTiter-Glo, 72 hours), PDGFR-α; type: cell-based; settings: Mus musculus, BaF3, read-out: Ba/F3 (nM) Tel-PDGFRα (GI50 class)
Protocol: as §2, §3

human PDGFR-β(wt) = target: T2, human PDGFR-β(wt) (Homo sapiens, UniProt P09619); test: Enzyme inhibitory activity, ADP-Glo kinase assay, PDGFR-β(wt); type: biochemical; settings: read-out: PDGFR-β (IC50 class)
T2 construct: purchased Signalchem P13-11G
T2 sequence (P09619 33-1106): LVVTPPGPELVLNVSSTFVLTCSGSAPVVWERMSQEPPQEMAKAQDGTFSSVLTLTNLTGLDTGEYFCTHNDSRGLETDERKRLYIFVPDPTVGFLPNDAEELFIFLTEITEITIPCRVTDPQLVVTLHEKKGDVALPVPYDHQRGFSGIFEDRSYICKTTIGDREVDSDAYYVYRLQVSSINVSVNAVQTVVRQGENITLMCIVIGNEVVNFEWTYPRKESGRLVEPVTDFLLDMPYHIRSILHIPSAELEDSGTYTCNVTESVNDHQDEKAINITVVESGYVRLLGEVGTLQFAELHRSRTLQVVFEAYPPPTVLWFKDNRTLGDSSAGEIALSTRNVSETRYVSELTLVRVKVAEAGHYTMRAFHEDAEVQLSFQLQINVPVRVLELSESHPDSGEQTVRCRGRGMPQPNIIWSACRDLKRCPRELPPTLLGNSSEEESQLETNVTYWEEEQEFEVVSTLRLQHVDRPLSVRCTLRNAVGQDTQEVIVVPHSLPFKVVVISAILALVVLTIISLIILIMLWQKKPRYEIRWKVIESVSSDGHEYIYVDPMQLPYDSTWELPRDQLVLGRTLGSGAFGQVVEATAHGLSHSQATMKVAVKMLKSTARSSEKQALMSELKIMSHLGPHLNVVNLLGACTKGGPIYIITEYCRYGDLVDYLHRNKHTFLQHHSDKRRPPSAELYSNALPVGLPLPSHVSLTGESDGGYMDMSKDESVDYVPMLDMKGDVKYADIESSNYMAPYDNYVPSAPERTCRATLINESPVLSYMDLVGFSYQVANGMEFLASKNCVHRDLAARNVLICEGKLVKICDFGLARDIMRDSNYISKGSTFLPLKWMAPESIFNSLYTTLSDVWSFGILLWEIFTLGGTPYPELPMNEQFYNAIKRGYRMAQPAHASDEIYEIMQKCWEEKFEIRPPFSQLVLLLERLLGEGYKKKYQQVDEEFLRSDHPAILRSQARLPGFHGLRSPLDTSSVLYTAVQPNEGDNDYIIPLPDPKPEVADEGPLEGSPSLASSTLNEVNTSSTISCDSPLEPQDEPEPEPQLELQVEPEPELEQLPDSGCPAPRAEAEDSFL
Summary of the method: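 Purified human kinases incubated with ATP and substrate 1–2 h at 25 °C in 40 mM Tris-HCl pH 7.4, 20 mM MgCl2, BSA, DTT, compound over 12 concentrations (10–0.00005645 μM final). ADP formed quantified by ADP-Glo luminescence; IC50 from inhibition versus DMSO control, reported in bins A–D.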

c-KIT D814Y = test: Proliferation inhibitory activity on Ba/F3 cell (CellTiter-Glo, 72 hours), c-KIT D814Y; type: cell-based; settings: Mus musculus, BaF3, c-KIT D814Y cells, read-out: Cell (nM) c-KIT D814Y (GI50 class)
Protocol: as §2, §3

various kinases = test: Inhibitory activity against various kinases, DiscoverX scanMAX Kinase panel, % control at 1 μM; type: binding
Protocol: The activities of the compounds according to the present disclosure on various enzymes were evaluated. Specifically, it was commissioned DiscoverX to measure enzyme selectivity for the compounds of Examples 3, 9, and 83 above, and the experiment was conducted using a panel for scanMAX™ Kinase analysis. Herein, a solution prepared by dissolving in DMSO at a concentration of 1 μM was used as the drug treated with the enzyme, and the control percentage (% control) was determined by the method of Equation 1 below, and the results are shown in Table 8 below.
Herein, when the calculated percentage value for each enzyme was less than 35%, it was determined to have inhibitory activity for the enzyme. Accordingly, among the series of enzymes tested, the enzymes showing the inhibitory activities of the compounds of the present disclosure are summarized and shown in Table 8 below along with the control percentages thereof. (©): less than 10%; ◯: 10% or more to less than 35%).

SMILES | GI50 (Ba/F3-c-KIT(D816V)) [nM] | IC50 (human PDGFR-α(wt)) [µM] | GI50 (c-KIT V560G/D816V) [nM] | GI50 (Ba/F3-TEL-PDGFβ(WT)) [nM] | GI50 (Ba/F3-TEL-PDGFRα(WT)) [nM] | IC50 (human PDGFR-β(wt)) [µM] | also measured
COc1cc2c(-c3ccc(NC(=O)C(C)(N)c4ccc(F)cc4)cc3)ncnc2cc1OCC(C)C (stereo not drawn) [Example 10, 2-amino-2-(4-fluorophenyl)-N-(4-(7-isobutoxy-6-methoxyquinazolin-4-yl)phenyl)propanamide] | ≤ 200 | ≤ 0.05 | > 500 | 200 to 500 | ≤ 200 | 0.1 to 0.5 | –
COc1cc2c(-c3ccc(NC(=O)Cc4ccc(C(F)(F)F)cc4)cc3)ncnc2cc1OCCCN1CC(N(C)C)C1 [Example 22, N-(4-(7-(3-(3-(dimethylamino)azetidine-1-yl)propoxy)-6-methoxyquinazolin-4-yl)phenyl)-2-(4-(trifluoromethyl)phenyl)acetamide] | ≤ 200 | – | ≤ 200 | – | – | – | GI50 (c-KIT D814Y): ≤ 200 nM
COCCOc1cc2ncnc(-c3ccc(NC(=O)C(C)(N)c4ccc(F)cc4)cc3)c2cc1OCCOC (stereo not drawn) [Example 58, 2-amino-N-(4-(6,7-bis(2-methoxyethoxy)quinazolin-4-yl)phenyl)-2-(4-fluorophenyl)propanamide] | ≤ 200 | ≤ 0.05 | > 500 | ≤ 200 | ≤ 200 | ≤ 0.05 | –
CCN1CCC(COc2cc3ncnc(-c4ccc(NC(=O)CCc5ccccc5)cc4)c3cc2OC)CC1 [Example 72, N-(4-(7-((1-ethylpiperidin-4-yl)methoxy)-6-methoxyquinazolin-4-yl)phenyl)-3-phenylpropanamide] | ≤ 200 | ≤ 0.05 | ≤ 200 | ≤ 200 | ≤ 200 | ≤ 0.05 | –
COc1cc2c(-c3ccc(NC(=O)Cc4ccc(C#N)cc4)cc3)ncnc2cc1OCCCN1CCN(C)CC1 [Example 83, 2-(4-cyanophenyl)-N-(4-(6-methoxy-7-(3-(4-methylpiperazin-1-yl)propoxy)quinazolin-4-yl)phenyl)acetamide] | ≤ 200 | ≤ 0.05 | ≤ 200 | ≤ 200 | ≤ 200 | ≤ 0.05 | control percentage (% control), KIT (various kinases; KIT): ⊚; control percentage (% control), KIT (A829P) (various kinases; KIT (A829P)): ⊚; control percentage (% control), KIT (D816H) (various kinases; KIT (D816H)): ⊚; control percentage (% control), KIT (D816V) (various kinases; KIT (D816V)): ⊚; control percentage (% control), KIT (L576P) (various kinases; KIT (L576P)): ⊚; control percentage (% control), KIT (V559D) (various kinases; KIT (V559D)): ⊚; control percentage (% control), KIT (V559D, T670I) (various kinases; KIT (V559D, T670I)): ◯ (◯: 10% or more to less than 35%); control percentage (% control), KIT (V559D, V654A) (various kinases; KIT (V559D, V654A)): ◯ (◯: 10% or more to less than 35%); control percentage (% control), PDGFRA (various kinases; PDGFRA): ⊚; control percentage (% control), PDGFRB (various kinases; PDGFRB): ⊚
COc1cc2c(-c3ccc(NC(=O)Cc4ccsc4)cc3)ncnc2cc1OCCCN1CCN(C)CC1 [Example 84, N-(4-(6-methoxy-7-(3-(4-methylpiperazin-1-yl)propoxy)quinazolin-4-yl)phenyl)-2-(thiophene-3-yl)acetamide] | ≤ 200 | ≤ 0.05 | ≤ 200 | ≤ 200 | ≤ 200 | ≤ 0.05 | –
COc1cc2c(-c3ccc(NC(=O)Cc4ccc5c(c4)CCO5)cc3)ncnc2cc1OCCCN1CCN(C)CC1 [Example 85, 2-(2,3-dihydrobenzofuran-5-yl)-N-(4-(6-methoxy-7-(3-(4-methylpiperazin-1-yl)propoxy)quinazolin-4-yl)phenyl)acetamide] | ≤ 200 | ≤ 0.05 | 200 to 500 | ≤ 200 | ≤ 200 | ≤ 0.05 | –
CCN1CCC(COc2cc3ncnc(-c4ccc(NC(=O)C(C)(C)c5ccc(F)cc5)cc4)c3cc2OC)CC1 [Example 90, N-(4-(7-((1-ethylpiperidin-4-yl)methoxy)-6-methoxyquinazolin-4-yl)phenyl)-2-(4-fluorophenyl)-2-methylpropanamide] | – | ≤ 0.05 | ≤ 200 | ≤ 200 | ≤ 200 | ≤ 0.05 | –
COc1cc2ncnc(-c3ccc(NC(=O)Cc4ccc(C(F)(F)F)cc4)cc3)c2cc1O[C@@H]1CCOC1 [Example 125, (R)-N-(4-(7-methoxy-6-((tetrahydrofuran-3-yl)oxy)quinazolin-4-yl)phenyl)-2-(4-(trifluoromethyl)phenyl)acetamide] | ≤ 200 | – | > 500 | – | – | – | GI50 (c-KIT D814Y): > 500 nM
COc1cc2ncnc(-c3ccc(NC(=O)Cc4ccc(C(F)(F)F)cc4)cc3)c2cc1OCCCN1CCN(C)CC1 [Example 126, N-(4-(7-methoxy-6-(3-(4-methylpiperazin-1-yl)propoxy)quinazolin-4-yl)phenyl)-2-(4-(trifluoromethyl)phenyl)acetamide] | ≤ 200 | – | ≤ 200 | – | – | – | GI50 (c-KIT D814Y): ≤ 200 nM
CCN1CCC(COc2cc3c(-c4ccc(NC(=O)Cc5ccc(C(F)(F)F)cc5)cc4)ncnc3cc2OC)CC1 [Example 147, N-(4-(6-((1-ethylpiperidin-4-yl)methoxy)-7-methoxyquinazolin-4-yl)phenyl)-2-(4-(trifluoromethyl)phenyl)acetamide] | ≤ 200 | ≤ 0.05 | – | ≤ 200 | ≤ 200 | ≤ 0.05 | –
CCN1CC2(C1)CN(CCCOc1cc3c(-c4ccc(NC(=O)Cc5ccc(C(F)(F)F)cc5)cc4)ncnc3cc1OC)C2 [Example 149] | > 500 | ≤ 0.05 | – | ≤ 200 | ≤ 200 | ≤ 0.05 | –
COc1cc2ncnc(-c3ccc(NC(=O)Cc4ccc(C(F)(F)F)cc4)cc3)c2cc1OCCCN1CC2(CCOCC2)C1 [Example 151, N-(4-(6-(3-(7-oxa-2-azaspiro[3.5]nonane-2-yl)propoxy)-7-methoxyquinazolin-4-yl)phenyl)-2-(4-(trifluoromethyl)phenyl)acetamide] | ≤ 200 | ≤ 0.05 | – | ≤ 200 | ≤ 200 | ≤ 0.05 | –
